Experimental data taken from article PMC8410836, “Rational design of hyperstable antibacterial peptides for food preservation” (NPJ Science of Food, 2021).
Converted amounts (≈) assume the structure as drawn. Read-outs that look alike come from different tables or passages of the source. Where a SMILES comes first, the peptide text is derived from it. Bridges are numbered along the chain shown (N, C = ends).

What was measured:
[1] = system: Micrococcus luteus ATCC4698
Experimental: (§1) Four Gram-positive bacteria: Listeria monocytogenes ATCC13932, Bacillus cereus ATCC11778, Staphylococcus aureus ATCC12900, and Micrococcus luteus ATCC4698 and three Gram-negative bacteria: Escherichia coli ATCC11775, Pectobacterium carotovorum MCC2112, and Salmonella typhimurium ATCC9844 were used in this study. These strains were stored at −80 °C in 25% (v/v) glycerol.
(§2) Antimicrobial assays against various bacterial cultures were done using the microdilution broth assay according to the Clinical and Laboratory Standards Institute (CLSI)[64] with some modifications. Mueller-Hinton broth was used to dilute the peptide stock and the bacterial inoculum. Inoculum was prepared from the mid-logarithmic phase culture. Each well of the microtiter plates received aliquots of 100 µL of the media containing different concentrations of peptide ranging from 0.3 to 300 µg/mL. The final concentration of bacteria in the wells was 5 × 10^5 Colony Forming Units (CFU) per mL. Ampicillin was used as positive control. For negative control, ultrapure water was used instead of peptides. Microtiter plates were incubated at 37 °C for 5–6 h with continuous shaking at 130 rpm (M. luteus cells were incubated for 7–8 h). The incubation time used for these assays was initially optimized using a 20-h incubation period. […] MIC assays were performed as three independent experiments in triplicates.

bovine trypsin = bovine trypsin (Bos taurus, UniProt P00760); experiment: biochemical; conditions: SEM
Sequence of bovine trypsin (P00760 24-246): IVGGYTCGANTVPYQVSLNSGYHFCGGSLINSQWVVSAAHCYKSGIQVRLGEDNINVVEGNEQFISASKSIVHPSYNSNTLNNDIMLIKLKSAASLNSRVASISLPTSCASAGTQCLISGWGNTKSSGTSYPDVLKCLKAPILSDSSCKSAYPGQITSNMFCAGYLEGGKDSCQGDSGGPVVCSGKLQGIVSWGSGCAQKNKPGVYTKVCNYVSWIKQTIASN
Experimental: The amidase activity of trypsin and its inhibition was assayed using the chromogenic substrate BAPNA at pH 8.2 in 0.05 M Tris-HCl containing 0.02 M CaCl2 at 37 °C. The assay reaction contained 50 µL of trypsin solution (40–50 μg of trypsin in 1 mM HCl), 50 µL of water, and 125 µL of the substrate. The reaction was carried out at 37 °C for 10 min and stopped by addition of 0.25 mL of 30% acetic acid. […] The trypsin solution was incubated with an aliquot of inhibitor for 10 min at 37 °C and reaction started by the addition of 125 µL substrate and incubated at 37 °C for 10 min. […] The effect of varying substrate concentration (BAPNA) on bovine trypsin in the presence of fixed concentrations of peptides was studied. The inhibition constants (Ki) were evaluated using the double reciprocal and Dixon plot of the data[65],[66]. Data presented are averages and standard error calculated from two biological replicate experiments.

[2] = system: Bacillus cereus ATCC11778
Experimental: as §1, §2

[3] = system: Escherichia coli ATCC11775
Experimental: as §1, §2

[4] = system: Listeria monocytogenes ATCC13932
Experimental: as §1, §2

[5] = system: Pectobacterium carotovorum MCC2112
Experimental: as §1, §2

[6] = system: Salmonella typhimurium ATCC9844
Experimental: as §1, §2

[7] = system: Staphylococcus aureus ATCC12900
Experimental: as §1, §2

[8] = microdilution broth (CLSI, modified), Mueller-Hinton broth, 5 × 10^5 CFU/mL, 37 °C, 7–8 h, resazurin colour change, three independent experiments in triplicates
[9] = microdilution broth, MH broth, 5 × 10^5 CFU/mL, 37 °C, 5–6 h, resazurin

| SMILES | MIC (µg/mL) M. luteus [1, 8] | Ki (bovine trypsin) | MIC Bacillus cereus [2, 9] | MIC Escherichia coli [3, 9] | MIC Listeria monocytogenes [4, 9] | MIC Pectobacterium carotovorum [5, 9] | MIC Salmonella typhimurium [6, 9] | MIC Staphylococcus aureus [7, 9] | further results |
| --- | --- | --- | --- | --- | --- | --- | --- | --- | --- |
| CC[C@H](C)[C@H](NC(=O)[C@@H](NC(=O)[C@@H](N)CO)C(C)C)C(=O)NCC(=O)N[C@H]1CSSC[C@@H](C(=O)N[C@@H](Cc2ccccc2)C(=O)N[C@H](C(=O)N[C@@H](CCCCN)C(=O)O)C(C)C)NC(=O)[C@H]([C@@H](C)CC)NC(=O)[C@@H]2CCCN2C(=O)[C@@H]2CCCN2C(=O)[C@H]([C@@H](C)CC)NC(=O)[C@H](CO)NC(=O)[C@H](CCCCN)NC(=O)[C@H]([C@@H](C)O)NC1=O [HSEP1] (H-SVIGCTKSIPPICFVK-OH; disulfide 5-13) | 75 µg/mL (≈ 44.4 µM) | 230 nM |  |  |  |  |  |  |  |
| CC[C@H](C)[C@@H]1NC(=O)[C@@H]2CCCN2C(=O)[C@@H]2CCCN2C(=O)[C@H]([C@@H](C)CC)NC(=O)[C@H](CO)NC(=O)[C@H]([C@@H](C)O)NC(=O)[C@@H](NC(=O)[C@H](C)N)CSSC[C@@H](C(=O)NCC(=O)N[C@@H](CCCCN)C(=O)O)NC1=O [HSEP2-ΔHR-ΔK8] (H-ACTSIPPICGK-OH; disulfide 2-9) | >150 µg/mL |  |  |  |  |  |  |  |  |
| CC[C@H](C)[C@H](NC(=O)[C@@H](NC(=O)[C@@H](N)CO)C(C)C)C(=O)N[C@@H](Cc1ccccc1)C(=O)NCC(=O)N[C@H]1CSSC[C@@H](C(=O)N[C@@H](Cc2ccccc2)C(=O)N[C@H](C(=O)NCC(=O)N[C@@H](Cc2ccccc2)C(=O)O)C(C)C)NC(=O)[C@H]([C@@H](C)CC)NC(=O)[C@@H]2CCCN2C(=O)[C@@H]2CCCN2C(=O)[C@H]([C@@H](C)CC)NC(=O)[C@H](CO)NC(=O)[C@H](CCCCN)NC(=O)[C@H]([C@@H](C)O)NC1=O [HSEP2-∆K19] (H-SVIFGCTKSIPPICFVGF-OH; disulfide 6-14) | 25 µg/mL (≈ 13.1 µM) | 440 nM | >150 µg/mL | >150 µg/mL | >150 µg/mL | >150 µg/mL | >150 µg/mL | >150 µg/mL |  |
| CC[C@H](C)[C@H](NC(=O)[C@H](Cc1ccccc1)NC(=O)[C@H](CO)NC(=O)[C@@H](N)CCCNC(=N)N)C(=O)N[C@@H](Cc1ccccc1)C(=O)NCC(=O)N[C@H]1CSSC[C@@H](C(=O)N[C@@H](Cc2ccccc2)C(=O)N[C@H](C(=O)NCC(=O)N[C@@H](Cc2ccccc2)C(=O)N[C@@H](CCCCN)C(=O)O)C(C)C)NC(=O)[C@H]([C@@H](C)CC)NC(=O)[C@@H]2CCCN2C(=O)[C@@H]2CCCN2C(=O)[C@H]([C@@H](C)CC)NC(=O)[C@H](CO)NC(=O)[C@H](CCCCN)NC(=O)[C@H]([C@@H](C)O)NC1=O [HSEP3a] (H-RSFIFGCTKSIPPICFVGFK-OH; disulfide 7-15) | 12.5 µg/mL (≈ 5.57 µM) | 55 nM | >150 µg/mL | >150 µg/mL | >150 µg/mL | >150 µg/mL | >150 µg/mL | >150 µg/mL |  |
| CC[C@H](C)[C@H](NC(=O)[C@@H](NC(=O)[C@H](CO)NC(=O)[C@@H](N)CCCNC(=N)N)C(C)C)C(=O)N[C@@H](Cc1ccccc1)C(=O)NCC(=O)N[C@H]1CSSC[C@@H](C(=O)N[C@@H](Cc2ccccc2)C(=O)N[C@H](C(=O)NCC(=O)N[C@H](C(=O)N[C@@H](CCCNC(=N)N)C(=O)O)[C@@H](C)O)C(C)C)NC(=O)[C@H]([C@@H](C)CC)NC(=O)[C@@H]2CCCN2C(=O)[C@@H]2CCCN2C(=O)[C@H]([C@@H](C)CC)NC(=O)[C@H](CO)NC(=O)[C@H](CCCCN)NC(=O)[C@H]([C@@H](C)O)NC1=O [HSEP3b] (H-RSVIFGCTKSIPPICFVGTR-OH; disulfide 7-15) | 6.25 µg/mL (≈ 2.87 µM) | 500 nM | 50 µg/mL (≈ 22.9 µM) | >150 µg/mL | 100 µg/mL (≈ 45.9 µM) | 50 µg/mL (≈ 22.9 µM) | >150 µg/mL | >150 µg/mL |  |
| CC[C@H](C)[C@H](NC(=O)[C@@H](NC(=O)[C@H](CO)NC(=O)[C@@H](N)CCCNC(=N)N)C(C)C)C(=O)N[C@@H](Cc1ccccc1)C(=O)NCC(=O)N[C@H]1CSSC[C@@H](C(=O)N[C@@H](Cc2ccccc2)C(=O)N[C@H](C(=O)NCC(=O)N[C@@H](Cc2ccccc2)C(=O)N[C@@H](CCCCN)C(=O)O)C(C)C)NC(=O)[C@H]([C@@H](C)CC)NC(=O)[C@@H]2CCCN2C(=O)[C@@H]2CCCN2C(=O)[C@H]([C@@H](C)CC)NC(=O)[C@H](CCCCN)NC(=O)[C@H](CO)NC(=O)[C@H](CCCCN)NC(=O)[C@H]([C@@H](C)O)NC1=O [HSEP3c] (H-RSVIFGCTKSKIPPICFVGFK-OH; disulfide 7-16; N-terminus and C-terminus assumed) |  | 1400 nM |  |  |  |  |  |  | MIC Bacillus cereus ([2]; ATCC11778): 100 µg/mL (≈ 43 µM); MIC Escherichia coli ([3]; ATCC11775): 100 µg/mL (≈ 43 µM); MIC Listeria monocytogenes ([4]; ATCC13932): 50 µg/mL (≈ 21.5 µM); MIC (µg/mL) M. luteus ([1]; ATCC4698): 3.125 µg/mL (≈ 1.34 µM); MIC Pectobacterium carotovorum [5]: 50 µg/mL (≈ 21.5 µM); MIC Salmonella typhimurium ([6]; ATCC9844): >150 µg/mL; MIC Staphylococcus aureus ([7]; ATCC12900): 150 µg/mL (≈ 64.5 µM) |
| CC[C@H](C)[C@H](NC(=O)[C@H](Cc1c[nH]c2ccccc12)NC(=O)[C@H](CO)NC(=O)[C@@H](N)CCCNC(=N)N)C(=O)N[C@@H](Cc1ccccc1)C(=O)N[C@H]1CSSC[C@@H](C(=O)N[C@@H](Cc2ccccc2)C(=O)N[C@H](C(=O)NCC(=O)N[C@@H](Cc2c[nH]c3ccccc23)C(=O)N[C@@H](CCCNC(=N)N)C(=O)O)C(C)C)NC(=O)[C@H]([C@@H](C)CC)NC(=O)[C@@H]2CCCN2C(=O)[C@@H]2CCCN2C(=O)[C@H]([C@@H](C)CC)NC(=O)[C@H](Cc2ccc(O)cc2)NC(=O)[C@H](CCCNC(=N)N)NC(=O)[C@H]([C@@H](C)O)NC1=O [HSEP3d] (H-RSWIFCTRYIPPICFVGWR-OH; disulfide 6-14; N-terminus and C-terminus assumed) |  | 370 nM |  |  |  |  |  |  | MIC Bacillus cereus ([2]; ATCC11778): 100 µg/mL (≈ 41.7 µM); MIC Escherichia coli ([3]; ATCC11775): >150 µg/mL; MIC Listeria monocytogenes ([4]; ATCC13932): >150 µg/mL; MIC (µg/mL) M. luteus ([1]; ATCC4698): 3.125 µg/mL (≈ 1.3 µM); MIC Pectobacterium carotovorum [5]: >150 µg/mL; MIC Salmonella typhimurium ([6]; ATCC9844): >150 µg/mL; MIC Staphylococcus aureus ([7]; ATCC12900): >150 µg/mL |
| CC[C@H](C)[C@H](NC(=O)[C@@H](NC(=O)[C@@H](N)CO)C(C)C)C(=O)NCC(=O)N[C@H]1CSSC[C@@H](C(=O)N[C@@H](Cc2ccccc2)C(=O)N[C@H](C(=O)N[C@@H](CCCCN)C(=O)O)C(C)C)NC(=O)[C@@H]2CCCN2C(=O)[C@H](CCCNC(=N)N)NC(=O)[C@@H]2CCCN2C(=O)[C@@H]2CCCN2C(=O)[C@H]([C@@H](C)CC)NC(=O)[C@H](CO)NC(=O)[C@H](CCCCN)NC(=O)[C@H]([C@@H](C)O)NC(=O)[C@H](Cc2c[nH]c3ccccc23)NC1=O [HVBBI, reference compound] (H-SVIGCWTKSIPPRPCFVK-OH; disulfide 5-15) | 150 µg/mL (≈ 74.4 µM) | 370 nM |  |  |  |  |  |  |  |
| CC[C@H](C)[C@@H]1NC(=O)[C@@H]2CCCN2C(=O)[C@@H]2CCCN2C(=O)[C@H]([C@@H](C)CC)NC(=O)[C@H](CO)NC(=O)[C@H](CCCCN)NC(=O)[C@H]([C@@H](C)O)NC(=O)[C@@H]2CSSC[C@H](NC1=O)C(=O)N[C@@H](Cc1ccccc1)C(=O)N1CCC[C@H]1C(=O)N[C@@H](CC(=O)O)C(=O)NCC(=O)N[C@@H](CCCNC(=N)N)C(=O)N2 [SFTI-cyclic, reference compound] | no detectable inhibitory activity |  |  |  |  |  |  |  |  |
